Test [1] concerns tau. The experiment in a line: Tau phosphorylation in Ab42-treated organotypic frontocortical slice cultures. In kind it is cell-based. To be noted: Ab42-treated rat organotypic frontocortical slice cultures. On the procedure:
Rat brain slice organotypic culture methods were modified from those published previously. [Adamchik et al., Brain Res Brain Res Protoc 5:153-158 (2000).] FCX slices ([…]) were transferred to sterile, porous Millicell-CM inserts (0.4 mm). Each culture insert unit contained two brain slices and was placed into individual wells of a 12-well culture tray in 2 ml medium: 50% MEM with Earl's salts, 2 mM L-glutamine, 25% Earl's balanced salt solution, 6.5 g/l D-glucose, 20% fetal bovine serum (FBS), 5% horse serum, 25 mM HEPES buffer, pH 7.2, and […] streptomycin and […] penicillin. Cultures were kept in an incubator for 2 days at 36° C. in 5% CO2 to minimize the impact of injury from slice preparation.
On the day of experiment, medium was removed, the brain slices rinsed and incubated in 0.1% FBS-containing medium for 4 hours at 36° C. in 5% CO2. Brain slices were then cultured with 100 nM Ab42 and/or 0.1, 1 nM compound C0105 or compound C0114 in fresh 0.1% FBS-containing medium for 16 hours. […]
The levels of phosphorylated tau (pSer202tau, pThr231tau and pThr181tau) as well as total tau precipitated (loading controls) are assessed by Western blotting using specific antibodies directed against each of the phosphor-epitopes and the anti-tau, respectively.

The target of test [2] is FLNA interactions with CXCR4, CD4 and CCR5 (Homo sapiens, UniProt P21333). Nature of the test: FLNA interactions with CXCR4, CD4 and CCR5 in lymphocytes (western blot). To be noted: 1 nM; lymphocytes of Ab42-treated young control subject and of AD patient. For orientation: In western blotting, separated proteins are transferred to a membrane and probed.
Test [3] deals with T1, mu opiate receptor (MOR) (Rattus norvegicus, UniProt P33535).
T1 construct: from tissue; host or cells: striatum (membrane preparation)
The experiment in a line: MOR agonist activity using [35S]GTPgS binding assay in striatal membranes. In kind it is biochemical. To be noted: Series C-2 table. The method in brief:
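Rat striatal membranes incubated 5 min at 30 °C in pH 7.5 HEPES buffer with 100 mM NaCl, 1 mM MgCl2 and 0.5 nM [35S]GTPgS, then 5 min with compound. Gαo-bound [35S]GTPgS isolated by immunoprecipitation and counted by liquid scintillation.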

Structures are written as SMILES.

T1 sequence (P33535 whole entry): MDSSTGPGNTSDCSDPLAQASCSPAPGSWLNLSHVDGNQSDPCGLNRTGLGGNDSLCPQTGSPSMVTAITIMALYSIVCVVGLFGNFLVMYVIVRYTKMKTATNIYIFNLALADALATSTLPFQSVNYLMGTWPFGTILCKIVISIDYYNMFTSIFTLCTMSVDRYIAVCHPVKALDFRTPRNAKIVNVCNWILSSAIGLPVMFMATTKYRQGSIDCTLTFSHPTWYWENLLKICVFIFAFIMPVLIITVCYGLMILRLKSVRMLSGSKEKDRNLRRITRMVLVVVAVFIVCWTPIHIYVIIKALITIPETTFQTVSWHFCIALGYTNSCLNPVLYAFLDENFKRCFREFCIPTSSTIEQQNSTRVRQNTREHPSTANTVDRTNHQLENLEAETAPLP
Chain of FLNA interactions with CXCR4, CD4 and CCR5 (P21333 2-2647 limits assumed): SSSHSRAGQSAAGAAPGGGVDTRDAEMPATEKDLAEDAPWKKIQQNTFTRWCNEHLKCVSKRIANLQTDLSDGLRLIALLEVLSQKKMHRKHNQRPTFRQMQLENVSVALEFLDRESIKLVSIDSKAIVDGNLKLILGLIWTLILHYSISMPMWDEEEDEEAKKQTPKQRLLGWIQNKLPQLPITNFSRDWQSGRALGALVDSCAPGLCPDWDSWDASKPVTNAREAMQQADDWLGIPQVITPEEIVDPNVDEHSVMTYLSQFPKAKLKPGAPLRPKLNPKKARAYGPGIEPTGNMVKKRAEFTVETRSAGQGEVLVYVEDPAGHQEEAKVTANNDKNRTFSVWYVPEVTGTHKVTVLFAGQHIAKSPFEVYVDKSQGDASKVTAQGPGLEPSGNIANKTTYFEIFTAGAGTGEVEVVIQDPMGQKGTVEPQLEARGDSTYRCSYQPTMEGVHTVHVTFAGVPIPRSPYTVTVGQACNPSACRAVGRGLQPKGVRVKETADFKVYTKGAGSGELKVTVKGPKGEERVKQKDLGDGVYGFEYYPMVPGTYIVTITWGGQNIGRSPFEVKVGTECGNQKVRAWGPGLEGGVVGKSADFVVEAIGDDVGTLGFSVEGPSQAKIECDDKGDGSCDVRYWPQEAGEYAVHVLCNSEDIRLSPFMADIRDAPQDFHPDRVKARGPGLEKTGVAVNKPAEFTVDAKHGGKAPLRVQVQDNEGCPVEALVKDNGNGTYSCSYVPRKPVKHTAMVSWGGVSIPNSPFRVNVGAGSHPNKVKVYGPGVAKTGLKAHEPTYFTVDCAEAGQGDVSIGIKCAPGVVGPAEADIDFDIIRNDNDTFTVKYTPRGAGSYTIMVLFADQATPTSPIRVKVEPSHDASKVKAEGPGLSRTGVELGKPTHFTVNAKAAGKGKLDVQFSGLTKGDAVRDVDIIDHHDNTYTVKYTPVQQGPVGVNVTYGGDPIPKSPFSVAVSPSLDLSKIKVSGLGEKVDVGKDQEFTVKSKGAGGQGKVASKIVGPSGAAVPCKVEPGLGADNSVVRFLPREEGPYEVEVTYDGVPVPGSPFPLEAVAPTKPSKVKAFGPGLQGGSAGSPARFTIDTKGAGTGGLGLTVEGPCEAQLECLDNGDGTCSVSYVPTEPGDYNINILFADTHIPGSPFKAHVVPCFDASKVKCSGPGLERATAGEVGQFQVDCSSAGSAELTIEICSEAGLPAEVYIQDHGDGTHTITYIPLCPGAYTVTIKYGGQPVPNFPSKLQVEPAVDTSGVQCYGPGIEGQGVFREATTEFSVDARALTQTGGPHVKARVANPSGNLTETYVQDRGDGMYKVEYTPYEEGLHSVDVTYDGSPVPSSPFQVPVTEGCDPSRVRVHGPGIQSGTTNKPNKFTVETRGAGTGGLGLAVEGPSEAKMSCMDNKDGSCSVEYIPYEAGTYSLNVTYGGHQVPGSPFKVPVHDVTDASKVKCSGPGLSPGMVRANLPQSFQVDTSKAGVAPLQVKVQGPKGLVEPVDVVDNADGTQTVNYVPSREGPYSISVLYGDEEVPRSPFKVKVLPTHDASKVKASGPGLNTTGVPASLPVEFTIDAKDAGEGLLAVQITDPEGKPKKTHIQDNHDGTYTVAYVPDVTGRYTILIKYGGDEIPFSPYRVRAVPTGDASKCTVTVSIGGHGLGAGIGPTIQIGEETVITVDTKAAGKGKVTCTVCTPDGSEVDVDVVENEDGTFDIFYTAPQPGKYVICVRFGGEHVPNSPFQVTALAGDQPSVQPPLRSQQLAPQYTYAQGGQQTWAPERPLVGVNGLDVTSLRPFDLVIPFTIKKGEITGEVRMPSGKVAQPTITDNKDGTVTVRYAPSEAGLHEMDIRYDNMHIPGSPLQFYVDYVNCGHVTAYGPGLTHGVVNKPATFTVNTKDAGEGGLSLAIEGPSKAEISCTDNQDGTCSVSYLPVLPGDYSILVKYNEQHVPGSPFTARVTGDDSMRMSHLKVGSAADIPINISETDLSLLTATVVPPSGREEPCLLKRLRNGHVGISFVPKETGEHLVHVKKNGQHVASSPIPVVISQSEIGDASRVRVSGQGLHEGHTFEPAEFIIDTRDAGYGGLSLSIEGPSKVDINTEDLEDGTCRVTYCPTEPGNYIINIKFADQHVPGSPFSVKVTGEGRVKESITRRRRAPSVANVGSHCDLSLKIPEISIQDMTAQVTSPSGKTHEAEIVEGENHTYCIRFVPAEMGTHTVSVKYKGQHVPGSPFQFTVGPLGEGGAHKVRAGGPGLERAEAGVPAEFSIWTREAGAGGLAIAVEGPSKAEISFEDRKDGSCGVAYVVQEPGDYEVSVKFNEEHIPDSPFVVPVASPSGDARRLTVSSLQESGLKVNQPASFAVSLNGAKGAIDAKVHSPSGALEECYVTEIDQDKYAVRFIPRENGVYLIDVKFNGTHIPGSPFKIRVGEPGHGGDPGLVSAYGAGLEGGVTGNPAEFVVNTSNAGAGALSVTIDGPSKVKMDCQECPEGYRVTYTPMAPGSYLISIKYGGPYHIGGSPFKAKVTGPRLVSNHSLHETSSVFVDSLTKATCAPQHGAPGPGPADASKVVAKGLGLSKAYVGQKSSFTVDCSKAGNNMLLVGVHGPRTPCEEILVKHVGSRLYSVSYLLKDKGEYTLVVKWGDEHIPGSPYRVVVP

Regarding `CN1CCC2(CC1)NCC(=O)N2Cc1ccccc1` [Compound C0105M], in test [1], the “Phosphorylation of tau at all three phosphorylation sites” value was “dramatically reduces phosphorylation of tau”. For the same molecule, the “FLNA linkages with CXCR4, CD4 and CCR5 (in words)” value in test [2] is listed as “reduced these linkages”. The “MOR agonist activity ([35S]GTPgS binding to Gao)” value was determined as 198.1% in test [3] (0.1 μM compound as agonist), 73.1% in test [3] (1 μM + BFNA) and 220.3% in test [3] (1 μM compound as agonist).

(Values after patent US20220233512A1, “INHIBITING AN IMMUNE RESPONSE MEDIATED BY ONE OR MORE OF TLR2, RAGE, CCR5, CXCR4 AND CD4” (priority 2020, published 2022).)
